According to patent publication US9067871B2, “Aminotetraline derivatives, pharmaceutical compositions containing them, and their use in therapy” (ABBVIE DEUTSCHLAND GMBH & CO KG, priority 2009, dated 2015):
Counter-ions that a name gives are not always drawn. Like-named read-outs stand apart in the source and are kept apart here.

Legend:
human GlyT1c transporter = human GlyT1c transporter (Homo sapiens (Human), UniProt P48067); experiment: Radioligand binding assay using recombinant CHO cell membranes expressing human GlyT1; conditions: read-out: radioligand binding Kiapp
Chain of human GlyT1c transporter (P48067 whole entry): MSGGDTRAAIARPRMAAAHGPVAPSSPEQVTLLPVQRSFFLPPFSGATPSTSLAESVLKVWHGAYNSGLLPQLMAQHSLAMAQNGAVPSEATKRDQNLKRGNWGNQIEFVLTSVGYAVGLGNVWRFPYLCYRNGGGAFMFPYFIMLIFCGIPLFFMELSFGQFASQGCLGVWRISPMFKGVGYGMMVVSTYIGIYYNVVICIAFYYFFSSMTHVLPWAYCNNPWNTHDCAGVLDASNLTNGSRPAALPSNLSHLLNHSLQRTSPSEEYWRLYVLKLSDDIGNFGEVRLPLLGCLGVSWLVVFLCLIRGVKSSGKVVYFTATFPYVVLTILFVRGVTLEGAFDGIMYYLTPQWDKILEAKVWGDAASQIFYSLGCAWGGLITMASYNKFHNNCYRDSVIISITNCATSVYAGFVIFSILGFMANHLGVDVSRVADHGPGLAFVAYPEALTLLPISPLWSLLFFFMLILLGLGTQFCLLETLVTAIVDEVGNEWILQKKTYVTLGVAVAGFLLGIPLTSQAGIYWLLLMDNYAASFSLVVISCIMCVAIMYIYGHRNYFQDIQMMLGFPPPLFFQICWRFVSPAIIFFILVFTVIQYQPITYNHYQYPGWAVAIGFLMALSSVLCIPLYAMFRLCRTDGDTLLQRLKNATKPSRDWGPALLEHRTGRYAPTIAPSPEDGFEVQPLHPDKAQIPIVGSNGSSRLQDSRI
From the text: 2. Radioligand binding assays using recombinant CHO cell membranes expressing human GlyT1: […]

human GlyT1c = human GlyT1c (Homo sapiens (Human), UniProt P48067); experiment: [3H]-Glycine uptake into recombinant CHO cells expressing human GlyT1; type: cell-based
Chain of human GlyT1c (P48067 whole entry): as above
Description: 1. [^3H]-Glycine uptake into recombinant CHO cells expressing human GlyT1: Human GlyT1c expressing recombinant hGlyT1c—5_CHO cells were plated at 20,000 cells per well in 96 well Cytostar-T scintillation microplates (Amersham Biosciences) and cultured to sub-confluency for 24 h. […] 80 μl HBSS buffer were added, followed by 10 μl inhibitor or vehicle (10% DMSO) and 10 μl [^3H]-glycine (TRK71, Amersham Biosciences) to a final concentration of 200 nM for initiation of glycine uptake. The plates were placed in a Wallac Microbeta (PerkinElmer) and continuously counted by solid phase scintillation spectrometry during up to 3 hours. Nonspecific uptake was determined in the presence of 10 μM Org24598.

[1] = human GlyT1c-expressing CHO cell membranes
[2] = hGlyT1c_5_CHO cells, 200 nM [3H]-glycine

| Compound | Ki (human GlyT1c transporter; [1]) | IC50 (human GlyT1c; [2]) | Ki (human GlyT1c transporter) | IC50 (human GlyT1c) |
| --- | --- | --- | --- | --- |
| NC1CCc2ccc(OCCNS(=O)(=O)c3cccs3)cc2C1Cc1ccc(Cl)c(Cl)c1 (stereo not drawn) [Example 17, Thiophene-2-sulfonic acid {2-[7-amino-8-(3,4-dichloro-benzyl)-5,6,7,8-tetrahydro-naphthalen-2-yloxy]-ethyl}-amide hydrochloride] | ≤ 1 µM | ≤ 10 µM |  |  |
| CCCS(=O)(=O)N(C)Cc1ccc2c(c1)[C@H](Cc1ccccc1)[C@H](N)CC2 (relative stereo) [Example 45, N-{[cis-7-amino-8-benzyl-5,6,7,8-tetrahydronaphthalen-2-yl]methyl}-N-methylpropane-1-sulfonamide hydrochloride] | ≤ 0.1 µM | ≤ 0.1 µM |  |  |
| Cn1cnc(S(=O)(=O)NCCOc2ccc3c(c2)C(Cc2cccc(Cl)c2)C(N)CC3)c1 (stereo not drawn) [Example 48, 1-Methyl-1H-imidazole-4-sulfonic acid {2-[7-amino-8-(3-chloro-benzyl)-5,6,7,8-tetrahydronaphthalen-2-yloxy]-ethyl}-amide hydrochloride] | ≤ 0.01 µM | ≤ 0.01 µM |  |  |
| CCCS(=O)(=O)N(C)CCOc1ccc2c(c1)C(Cc1cccc(Cl)c1)C(NC(=O)OCC)CC2 (stereo not drawn) [Example 78, (1-(3-Chloro-benzyl)-7-{2-[methyl-(propane-1-sulfonyl)-amino]-ethoxy}-1,2,3,4-tetrahydronaphthalen-2-yl)-carbamic acid ethyl ester] | ≤ 10 µM | ≤ 10 µM |  |  |
| CCCS(=O)(=O)NCCOc1ccc2c(c1)C(Cc1cccc(Cl)c1)C(N)CC2 (stereo not drawn) [Example 55, Propane-1-sulfonic acid {2-[7-amino-8-(3-chloro-benzyl)-5,6,7,8-tetrahydro-naphthalen-2-yloxy]-ethyl}-amide hydrochloride] |  |  | ≤ 0.01 µM | ≤ 0.1 µM |
| Cc1ncc(S(=O)(=O)NCCOc2ccc3c(c2)C(Cc2cccc(Cl)c2)C(N)CC3)[nH]1 (stereo not drawn) [Example 58, 2-Methyl-3H-imidazole-4-sulfonic acid {2-[7-amino-8-(3-chloro-benzyl)-5,6,7,8-tetrahydronaphthalen-2-yloxy]-ethyl}-amide] | ≤ 1 µM | ≤ 10 µM |  |  |
| NC1CCc2ccc(OCCNS(=O)(=O)C3CCNC3)cc2C1Cc1ccc(Cl)c(Cl)c1 (stereo not drawn) [Example 19, Pyrrolidine-3-sulfonic acid {2-[7-amino-8-(3,4-dichloro-benzyl)-5,6,7,8-tetrahydronaphthalen-2-yloxy]-ethyl}-amide hydrochloride] | ≤ 10 µM | ≤ 100 µM |  |  |

Continued, in another order:

| Ki (human GlyT1c transporter; [1]) | IC50 (human GlyT1c; [2]) | Compound | Ki (human GlyT1c transporter) | IC50 (human GlyT1c) |
| --- | --- | --- | --- | --- |
| ≤ 1 µM | ≤ 1 µM | NC1CCc2ccc(OCCNS(=O)(=O)c3cccnc3)cc2C1Cc1ccc(Cl)c(Cl)c1 (stereo not drawn) [Example 5, Pyridine-3-sulfonic acid {2-[7-amino-8-(3,4-dichloro-benzyl)-5,6,7,8-tetrahydro-naphthalen-2-yloxy]-ethyl}-amide hydrochloride] |  |  |
| ≤ 0.1 µM | ≤ 1 µM | CCCS(=O)(=O)N(C)CCOc1ccc2c(c1)C(Cc1ccc(Cl)c(Cl)c1)C(N)CC2 (stereo not drawn) [Example 11, N-(2-(7-Amino-8-(3,4-dichlorobenzyl)-5,6,7,8-tetrahydronaphthalen-2-yloxy)ethyl)-N-methylpropane-1-sulfonamide hydrochloride] |  |  |
| ≤ 100 µM | ≤ 1000 µM | CCOC(=O)NC1CCc2ccc(OCCNS(=O)(=O)c3ccccc3)cc2C1Cc1ccc(Cl)c(Cl)c1 (stereo not drawn) [Example 13, [7-(2-Benzenesulfonylamino-ethoxy)-1-(3,4-dichloro-benzyl)-1,2,3,4-tetrahydronaphthalen-2-yl]-carbamic acid ethyl ester] |  |  |
| ≤ 1 µM | ≤ 1 µM | CCOC(=O)NC1CCc2ccc(OCCNS(=O)(=O)c3cnn(C)c3)cc2C1Cc1ccc(Cl)c(Cl)c1 (stereo not drawn) [Example 9, {1-(3,4-Dichloro-benzyl)-7-[2-(1-methyl-1H-pyrazole-4-sulfonylamino)-ethoxy]-1,2,3,4-tetrahydro-naphthalen-2-yl}-carbamic acid ethyl ester] |  |  |
| ≤ 10 µM | ≤ 100 µM | CCOC(=O)NC1CCc2ccc(C#N)cc2C1Cc1ccc(Cl)c(Cl)c1 (stereo not drawn) [Example 32, Ethyl [7-cyano-1-(3,4-dichlorobenzyl)-1,2,3,4-tetrahydronaphthalen-2-yl]carbamate] |  |  |
